Source: ChEMBL document CHEMBL3507680, “University of Dundee, Gates Library screen for HepG2 cell viability”

Test: Human HepG2 cell viability assay in 384 well format
Assay type: toxicity, cell-based
Parameters: dose 125 nL, time 70.5 hour; concentration not given beside the values
Conditions: HepG2 cells, read-out: Inhibition

CCOc1ccccc1CNC(=O)N1CCC(n2cncn2)CC1
cytotoxicity at 70.5 h: -11.8%

Cc1cnn(CCC(=O)N2CCCN(c3ccccc3C#N)CC2)c1
cytotoxicity at 70.5 h: -1.64%

Cc1ccc(N2CCCC(NCC(=O)NC(C3CC3)C3CC3)C2)nn1 (stereo not drawn)
cytotoxicity at 70.5 h: -8.53%

CCNC(c1ccc(CC)cc1)c1cccnc1 (stereo not drawn)
cytotoxicity at 70.5 h: 7.31%

CCNC(c1ccc(Cl)cc1)c1cccnc1 (stereo not drawn)
cytotoxicity at 70.5 h: 34.5%

CC(=O)N1CCCN(C(=O)C(C)n2cncn2)CC1 (stereo not drawn)
cytotoxicity at 70.5 h: -3.53%

CN(C)CCN1CCC(CNCc2c[nH]nc2C(C)(C)C)CC1
cytotoxicity at 70.5 h: 28.4%

COCCN1CCC(CNCc2c[nH]nc2C(C)(C)C)CC1
cytotoxicity at 70.5 h: 24.7%

Cc1ccc(NC2CCN(C(=O)c3ccc(C#N)cc3)CC2)nn1
cytotoxicity at 70.5 h: -7.94%

CCOCCN1CCN(CC(=O)N2CCCC2)CC1CC (stereo not drawn)
cytotoxicity at 70.5 h: -4.43%

Cc1ccc(N2CCCC(NCc3cnc(C)s3)C2)nn1 (stereo not drawn)
cytotoxicity at 70.5 h: -1.22%

CCOCCN1CCN(CC(=O)N2CCC2)CC1CC (stereo not drawn)
cytotoxicity at 70.5 h: -7.02%

O=C(NCCc1ccccc1)NCC(O)c1cccc(F)c1 (stereo not drawn)
cytotoxicity at 70.5 h: -3.34%

COc1cc(C(=O)NCc2ccc3c(c2)CCCN3C)cc(OC)c1Br
cytotoxicity at 70.5 h: -8.61%

CCOc1ncccc1CNCc1c(C(C)C)nn(C)c1N(C)C
cytotoxicity at 70.5 h: 57.6%

CCN(Cc1cccc(F)c1)Cn1nc(C)c2c(C)onc2c1=O
cytotoxicity at 70.5 h: -8.8%

CSc1ccc(CNC(=O)NCC(O)c2cccc(F)c2)cc1 (stereo not drawn)
cytotoxicity at 70.5 h: -7.86%

Fc1ccc(-c2nc(CN3CCOC(Cn4cccn4)C3)co2)cc1 (stereo not drawn)
cytotoxicity at 70.5 h: -5.89%

O=c1[nH]c(CN2CCOC(Cn3cccn3)C2)nc2ccccc12 (stereo not drawn)
cytotoxicity at 70.5 h: -6.2%

Cc1cnc(C(=O)NCc2ccc3c(c2)CCCN3C)cn1
cytotoxicity at 70.5 h: -4.01%

Cc1cnn(CC2CN(Cc3nc4ccccc4s3)CCO2)c1 (stereo not drawn)
cytotoxicity at 70.5 h: -4.94%

CN1CCCc2cc(CNC(=O)c3ccc(-n4cnnc4)cc3)ccc21
cytotoxicity at 70.5 h: -2.87%

N#Cc1ccc(CC(=O)N2CCC(Nc3cccnn3)CC2)cc1
cytotoxicity at 70.5 h: -5.35%

Cc1ccc(CC(=O)N2CCC(Nc3ccc(C)nn3)CC2)cn1
cytotoxicity at 70.5 h: -1.2%

Cc1sc(-c2ccco2)nc1C(=O)N1CCCC1Cn1cccn1 (stereo not drawn)
cytotoxicity at 70.5 h: -1.73%

O=C(c1cnc(-c2cnccn2)s1)N1CCCC1Cn1cccn1 (stereo not drawn)
cytotoxicity at 70.5 h: -3.28%

Cc1nc(C)n(C2CCCN(C(=O)c3cn4cccnc4n3)C2)n1 (stereo not drawn)
cytotoxicity at 70.5 h: 2.73%

CC(C)c1nccn1C1CCCN(C(=O)c2cn3cccnc3n2)C1 (stereo not drawn)
cytotoxicity at 70.5 h: -3.43%

CN1CCCc2cc(CNC(=O)c3cc[n+]([O-])cc3)ccc21
cytotoxicity at 70.5 h: -6.17%

CC(C)COCCCNC(=O)NCC(O)c1cccc(F)c1 (stereo not drawn)
cytotoxicity at 70.5 h: -0.106%

CCOc1cccc2c1OCC(C(=O)NS(=O)(=O)c1cccs1)=C2
cytotoxicity at 70.5 h: -9.43%

COCCCN(CCOC)Cc1nc2c(cnn2C)c(=O)[nH]1
cytotoxicity at 70.5 h: -12.6%

CSCc1ccc(C(=O)N2CCN(CC(C)O)CC2)cc1 (stereo not drawn)
cytotoxicity at 70.5 h: -15.3%

O=C(CCOCC(F)(F)F)N1CCCC1c1noc(C2CC2)n1 (stereo not drawn)
cytotoxicity at 70.5 h: -8.98%

CCN(Cc1ccc2c(c1)OCCO2)C(=O)NCc1nncn1CC
cytotoxicity at 70.5 h: -13.5%

Cc1nc(CN(C)C2CCN(CCn3cc(C#N)cn3)C2)no1 (stereo not drawn)
cytotoxicity at 70.5 h: 8.59%

O=C(COCc1ccccc1)N1CCCC1c1noc(C2CC2)n1 (stereo not drawn)
cytotoxicity at 70.5 h: -7.31%

CC(C)c1nc(CN2CCOC(CNc3cccnn3)C2)cs1 (stereo not drawn)
cytotoxicity at 70.5 h: -8.93%

CC(C)CN(CCc1ccccc1)Cc1nc2c(cnn2C)c(=O)[nH]1
cytotoxicity at 70.5 h: -3.12%

COCCN(CCOC)Cc1nc2c(cnn2C)c(=O)[nH]1
cytotoxicity at 70.5 h: 7%

O=C(c1cccc2c1OCO2)N1CCCC(n2ccnc2)C1 (stereo not drawn)
cytotoxicity at 70.5 h: -10.3%

O=C(c1cnc(-c2cccs2)s1)N1CCCC(n2ccnc2)C1 (stereo not drawn)
cytotoxicity at 70.5 h: -8.31%

COCc1ccc(C(=O)N2CCN(CC(C)O)CC2)cc1 (stereo not drawn)
cytotoxicity at 70.5 h: -3.37%

COCCCC(=O)N1CCC(Nc2cccnn2)CC1
cytotoxicity at 70.5 h: -10.4%

Cc1cnn(CC2CCCN2C(=O)c2cccnc2-n2cncn2)c1 (stereo not drawn)
cytotoxicity at 70.5 h: -13.9%

Cc1nn(C)c(Cl)c1C1CCCN1C(=O)c1cnc[nH]1 (stereo not drawn)
cytotoxicity at 70.5 h: -12.8%

Cc1nc(C2CCCN2C(=O)COCc2ccccc2)no1 (stereo not drawn)
cytotoxicity at 70.5 h: -10.2%

Cc1nn(C)c(Cl)c1C1CCCN1C(=O)c1ccc[nH]1 (stereo not drawn)
cytotoxicity at 70.5 h: 9.9%

N#Cc1cccc(NS(=O)(=O)c2ccc(C(=O)O)cc2F)c1
cytotoxicity at 70.5 h: -13.8%

Cc1cc(NS(=O)(=O)c2ccc(C(=O)O)cc2F)ccc1F
cytotoxicity at 70.5 h: -10.7%

CN(CC(=O)N1CCCC1c1noc(C2CC2)n1)Cc1ccccc1 (stereo not drawn)
cytotoxicity at 70.5 h: -7.61%

CCn1nc2c(cc1=O)CN(CCCN1CCCC1=O)CC2
cytotoxicity at 70.5 h: 16.8%

Cc1nccc(C(=O)NC(COCC(C)C)c2ccco2)n1 (stereo not drawn)
cytotoxicity at 70.5 h: 19.4%

CCc1nccn1C1CCCN(C(=O)c2cnn3cccnc23)C1 (stereo not drawn)
cytotoxicity at 70.5 h: 27.7%

O=C(COc1ccc(C(F)(F)F)cc1)N1CCOCC1c1ncon1 (stereo not drawn)
cytotoxicity at 70.5 h: -6%

Cc1cc(C)n(CC2CCCN2C(=O)Cc2c(C)nn(C)c2C)n1 (stereo not drawn)
cytotoxicity at 70.5 h: -0.624%

O=C(COc1ccc(Cl)cc1)N1CCOCC1c1ncon1 (stereo not drawn)
cytotoxicity at 70.5 h: -1.69%

O=C(COc1cccc(Cl)c1)N1CCOCC1c1ncon1 (stereo not drawn)
cytotoxicity at 70.5 h: 13.9%

Cc1ccc(NC(=O)N(C)Cc2cnn(C)c2)c(C)c1
cytotoxicity at 70.5 h: -10.1%

CC(C(=O)NCc1ccc(N2CCCCCC2)nc1)S(C)(=O)=O (stereo not drawn)
cytotoxicity at 70.5 h: -9.13%

CS(=O)(=O)c1ccc(CNc2nccc(C(F)(F)F)n2)cc1
cytotoxicity at 70.5 h: -1.16%

O=C(CCNc1ncccn1)N1CCN(c2nccs2)CC1
cytotoxicity at 70.5 h: -16.3%

CC(C)C(NC(N)=O)C(=O)NCc1ccc(N2CCCC2)nc1 (stereo not drawn)
cytotoxicity at 70.5 h: -9.75%

O=C(NCCNc1ncccn1)C1CC(=O)N(Cc2ccco2)C1 (stereo not drawn)
cytotoxicity at 70.5 h: -4.28%

CN(Cc1nnc2n1CCC2)C(=O)c1ccc2c(c1)OCO2
cytotoxicity at 70.5 h: -11.9%

Cc1ccc(NC(=O)NCCCn2nc3ccccn3c2=O)cc1
cytotoxicity at 70.5 h: -0.527%

Cc1cccc(NC(=O)Cn2nc3ccccn3c2=O)c1C
cytotoxicity at 70.5 h: -10.3%

O=C(NCCCn1nc2ccccn2c1=O)Nc1ccccc1
cytotoxicity at 70.5 h: 16.7%

CN(Cc1nnc2n1CCC2)C(=O)c1ccc2c(c1)CCO2
cytotoxicity at 70.5 h: -3.65%

COc1ccc(C(C)NC(=O)NCCCn2cncn2)cc1F (stereo not drawn)
cytotoxicity at 70.5 h: -4.51%

NC(=O)NC(=O)CCN1CCCN(c2nccs2)CC1
cytotoxicity at 70.5 h: 0.668%

CCOc1ccc(CN2CCN(C(=O)c3ccc(C)n3C)CC2)cc1
cytotoxicity at 70.5 h: -0.122%

Cc1noc(Cl)c1CCC(=O)N1CCc2sccc2C1
cytotoxicity at 70.5 h: -1.52%

Cc1ncc2c(n1)CN(CCCc1nc3ccccc3o1)CC2
cytotoxicity at 70.5 h: -0.537%

CC(C)c1nnc2n1CCN(C(=O)c1ccnc(N(C)C)c1)C2
cytotoxicity at 70.5 h: -0.0863%

Cc1ccc(NC2CCN(C(=O)c3cccc4ncccc34)CC2)nn1
cytotoxicity at 70.5 h: 1.63%

COc1cc(S(=O)(=O)N2CCc3ccc(F)cc32)cc(C(=O)O)c1OC
cytotoxicity at 70.5 h: 10.1%

O=C(NCCCNc1ccccc1)c1scnc1Cl
cytotoxicity at 70.5 h: 4.41%

Fc1ccc(-c2nnc(CN3CCn4c(nnc4C4CC4)C3)o2)cc1
cytotoxicity at 70.5 h: -5.47%

Cc1ccc(C(N)c2cccc(S(C)(=O)=O)c2)cc1 (stereo not drawn)
cytotoxicity at 70.5 h: 4.98%

COc1ccc(C(N)c2cccc(S(C)(=O)=O)c2)cc1 (stereo not drawn)
cytotoxicity at 70.5 h: -1.22%

COc1cc(S(=O)(=O)N2CCCc3ccccc32)cc(C(=O)O)c1OC
cytotoxicity at 70.5 h: 5.62%

c1csc(-c2nc(CN3CCn4c(nnc4C4CC4)C3)co2)c1
cytotoxicity at 70.5 h: -13.1%

Cc1cc(S(=O)(=O)N2CCc3ccc(F)cc32)cc(C(=O)O)c1C
cytotoxicity at 70.5 h: 6.28%

CC(C)(C)c1nnc(CN2CCn3c(nnc3C3CC3)C2)o1
cytotoxicity at 70.5 h: -0.488%

Cc1nn2cccnc2c1C(=O)N1CCCC(Nc2ccccc2)C1 (stereo not drawn)
cytotoxicity at 70.5 h: -0.861%

O=C(NCc1cc[nH]n1)N(CCCO)C1CCc2ccccc21 (stereo not drawn)
cytotoxicity at 70.5 h: -0.509%

Cc1cnc(CN2CCCC2c2noc(C)n2)cn1 (stereo not drawn)
cytotoxicity at 70.5 h: 5.04%

Cc1ccc(NC2CCN(C(=O)c3cc(C(N)=O)cs3)CC2)nn1
cytotoxicity at 70.5 h: 11.5%

Cc1cnn(CC2CCCCN2CCCS(N)(=O)=O)c1 (stereo not drawn)
cytotoxicity at 70.5 h: 33.5%

Cc1cc(C)n(CC2CCCCN2CCCS(N)(=O)=O)n1 (stereo not drawn)
cytotoxicity at 70.5 h: 14%

Cc1cnc(CN(C)C2CCN(Cc3nc4ccccc4n3C)C2)o1 (stereo not drawn)
cytotoxicity at 70.5 h: 25.2%

Cc1ccc(CNC(=O)CN2CCCC(Cn3cncn3)C2)s1 (stereo not drawn)
cytotoxicity at 70.5 h: 22.1%

Cc1ccccc1CC(=O)N(C)C1CCCC1
cytotoxicity at 70.5 h: -4.43%

COc1ccc(OCCN(C)C(=O)NC(C)c2nncn2C)cc1 (stereo not drawn)
cytotoxicity at 70.5 h: -1.05%

CC(NC(=O)N(C)CCCOc1ccc(F)cc1)c1nncn1C (stereo not drawn)
cytotoxicity at 70.5 h: -1.45%

COc1ncccc1CNC(=O)NCCNC(=O)c1ccco1
cytotoxicity at 70.5 h: 0.312%

CC(C)Oc1ncccc1CNC(=O)c1ccco1
cytotoxicity at 70.5 h: 1.27%

CCS(=O)(=O)N(C)CC(=O)Nc1ccc(Br)cn1
cytotoxicity at 70.5 h: 4.52%

O=C(Cc1ccc(-n2cccn2)cc1)N1CCN2CCCCC2C1 (stereo not drawn)
cytotoxicity at 70.5 h: 3.24%

CC(=O)NC1CCCN(C(=O)NCc2cccnc2N(C)C)C1 (stereo not drawn)
cytotoxicity at 70.5 h: 4.39%

Cc1ccc(-c2nc(CCNC(=O)CCN3CCOC3=O)co2)cc1
cytotoxicity at 70.5 h: -2.58%

Cn1ccnc1CN1CCN(Cc2noc(-c3ccccc3)n2)CC1
cytotoxicity at 70.5 h: -4.14%

Cc1ccc(CCC(=O)N2CCCC(n3cncn3)C2)c(C)c1 (stereo not drawn)
cytotoxicity at 70.5 h: -3.58%

CCNc1cc2c(nn1)CCN(C(=O)c1ccc(CNC(C)=O)o1)C2
cytotoxicity at 70.5 h: -5.9%

CCc1nc(C2CCCN2C(=O)c2nc(C)n3ccccc23)no1 (stereo not drawn)
cytotoxicity at 70.5 h: -7.79%

CCc1nc(CC(=O)N2CCCC2CN2CCCC2)cs1 (stereo not drawn)
cytotoxicity at 70.5 h: -1.93%

CCc1nnc(CN2CCCC(c3cc(C(F)(F)F)[nH]n3)C2)o1 (stereo not drawn)
cytotoxicity at 70.5 h: 0.217%

COc1ccccc1-c1noc(CN2CCCC2Cn2cccn2)n1 (stereo not drawn)
cytotoxicity at 70.5 h: 12.5%

CCc1noc(C(C)N2CCNCC2)n1 (stereo not drawn)
cytotoxicity at 70.5 h: 0.0476%

c1cnn(CC2CCCN2Cc2nc(-c3ccoc3)no2)c1 (stereo not drawn)
cytotoxicity at 70.5 h: 28.2%

O=C(CN1CCCC(Cn2cncn2)C1)NCCOc1ccccc1 (stereo not drawn)
cytotoxicity at 70.5 h: -2.13%

COc1ccc(CC(=O)N2CCCC(n3cc(C)cn3)C2)cc1F (stereo not drawn)
cytotoxicity at 70.5 h: -2.2%

Cc1cc(OCC(=O)N2CCCC(c3noc(C)n3)C2)no1 (stereo not drawn)
cytotoxicity at 70.5 h: -5.48%

Cc1ccc(-c2nc(CN3CCCC3Cn3cc(C)cn3)no2)cc1 (stereo not drawn)
cytotoxicity at 70.5 h: 23.6%

CN(C)CC1CN(Cc2coc(-c3cccs3)n2)CCO1 (stereo not drawn)
cytotoxicity at 70.5 h: 1.06%

CC(Cn1cccn1)NC(=O)NCc1cccnc1OC1CCCC1 (stereo not drawn)
cytotoxicity at 70.5 h: -12.8%

CS(=O)(=O)c1cccc(C(N)c2ccc(F)c(F)c2)c1 (stereo not drawn)
cytotoxicity at 70.5 h: -4.97%
